The text below walks through data of PMC5877736, “Functional Characteristics, Electrophysiological and Antennal Immunolocalization of General Odorant-Binding Protein 2 in Tea Geometrid, Ectropis obliqua” (International Journal of Molecular Sciences, 2018).

Like-named read-outs stand apart in the source and are kept apart here.

The target of experiment [1] is EoblGOBP2 (Ectropis obliqua, UniProt C0JAP5). Nature of the experiment: Competitive fluorescence ligand-binding assay with 1-NPN as fluorescent probe. Particulars: for binding to EoblGOBP2 (in words): competitive binding with 1-NPN. The procedure:
For EoblGOBP2 binding assays, 1-NPN was used as a competitive fluorescent reporter. When 1-NPN was added dropwise to the protein solution, the maximum emission peak at 340 nm was shifted to about 420 nm. The dissociation constant of 1-NPN to EoblGOBP2 was approximately 2.31 μM calculated using the Scatchard equation (Figure 5A). Using 1-NPN as a fluorescent probe, the binding affinities of EoblGOBP2 to 19 ligands were measured using competitive binding assays. IC50 values and dissociation constants (KD) were then calculated (Table 1).
Ligand-binding assays were performed on a RF-5031pc Fluorescence Spectrophotometer (Shimadzu, Tokyo, Japan). The excitation and emission slits were set to 10 nm. Fluorescence spectra were recorded from 300 to 550 nm with an excitation wavelength of 282 nm. The recombinant EoblGOBP2 protein solutions (1.5 μM), served in 1 cm light path quartz cuvette, were titrated with 1 mM 1-NPN solution in methanol. The fluorescence intensity at the maximum emission wavelength of about 328 nm was linearized using the Scatchard equation [46], then the dissociation constants for 1-NPN (K1-NPN) was calculated.
Nineteen fresh tea leaf volatiles were used as test ligands. For the binding affinities of the ligands to EoblGOBP2, a mixture of 1-NPN and EoblGOBP2 protein was titrated with 1 μM ligands dissolved in methanol. The IC50 values were obtained by data linearization, and the dissociation constants (KD) were calculated using the following equation: KD = [IC50]/(1 + [1-NPN]/K1-NPN), where [1-NPN] is the free concentration of 1-NPN, and K1-NPN is the dissociation constant of the protein/1-NPN complex.

Experiment [2] relates to E. obliqua antennae. Nature of the experiment: Electroantennogram (EAG) of male and female antennae. Further details: species or system Ectropis obliqua. Particulars: volatiles at 10 mg/mL (Figure 7). The procedure:
To characterize the relationship between ligand-binding and E. obliqua olfactory activity, seven ligands with strong EoblGOBP2 binding affinities were selected for EAG measurements.
The antennal olfactory responses of E. obliqua to seven candidate tea volatiles were tested by the EAG technique. Prior to EAG experiments, all test ligands were dissolved into liquid paraffin at a concentration of 0.1 (v/v). The fresh […] antenna were excised from its base, and immediately attached onto the fork electrode holder using non-drying clay (Spectra 360 Electrode Gel, Parker Laboratories Inc., Orange, NJ, USA). […] All antennae should be tested in three replicates.
The odor stimulus was performed in the pulse while recording the electroantennogram of antennae. (E)-3-hexenol and liquid paraffin were chosen as the positive and negative control CK, respectively. All antennae were stimulated with five samples, and each tested sample was repeated six times. EAG signals were recorded and analyzed with EAG-Pro software (Syntech, Hilversum, NT). The relative values of EAG response were calculated using the following formula: Sr = (Sc − CKm)/(Rm − CKm)·100% [52]. Where Sr is the relative value of the EAG response, Sc is the EAG response for a certain odor, CKm is the mean of the EAG responses of liquid paraffin before and after the test odor stimulus, and Rm is the mean of the EAG response of (Z)-3-hexenol.

Where [3] appears, read: class symbol, protein 1.5 μM, read-out: KD Dissociation Constant.
[4] abbreviates: calculated from IC50: KD = [IC50]/(1 + [1-NPN]/K1-NPN), protein 1.5 μM, read-out: KD Dissociation Constant.
[5] abbreviates: ligand concentration halving 1-NPN fluorescence, protein 1.5 μM.

Sequence of EoblGOBP2 (C0JAP5 entry or part of it): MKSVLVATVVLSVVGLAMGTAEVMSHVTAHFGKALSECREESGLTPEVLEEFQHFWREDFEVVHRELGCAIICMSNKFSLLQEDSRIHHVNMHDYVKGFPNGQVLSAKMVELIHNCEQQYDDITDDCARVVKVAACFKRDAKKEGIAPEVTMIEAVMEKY

As for `CC/C=C/C=O` [(E)-2-pentenal], in experiment [1] (class symbol, protein 1.5 μM), the IC50 (usually the concentration that inhibits the measured activity by half) is more than 50 µM. Besides, in experiment [1] (setting [3]), the Kd is more than 11.2 µM.

Turning to `OCc1ccccc1` [Benzyl alcohol], the IC50 in experiment [1] (class symbol, protein 1.5 μM) is more than 50 µM. Further, the Kd in experiment [1] (setting [3]) is more than 11.2 µM.

With `CC/C=C\CCO` [(Z)-3-hexenol], the IC50 in experiment [1] (class symbol, protein 1.5 μM) is more than 50 µM. In experiment [1] (setting [3]), the Kd was more than 11.2 µM.

On to `O=Cc1ccccc1` [Benzaldehyde], for which, in experiment [1] (setting [4]), the Kd is 44.2 µM. Also, the IC50 in experiment [1] (setting [5]) came out at 197 µM. The “EAG response, male versus female antennae” value in experiment [2] is given as “stronger in male antennae than in female antennae”.

As to `CCCCCCCCCCCCCCCC(=O)O` [Hexadecanoic acid], the IC50 in experiment [1] (class symbol, protein 1.5 μM) is more than 50 µM. Also, the Kd in experiment [1] (setting [3]) was more than 11.2 µM. For the same compound, the “binding to EoblGOBP2 (in words)” value in experiment [1] is on record as “could not bind”.

Turning to `C=CC(C)(O)CCC=C(C)C` (stereo not drawn) [Linalool], the IC50 in experiment [1] (class symbol, protein 1.5 μM) was more than 50 µM. In addition, the Kd in experiment [1] (setting [3]) was more than 11.2 µM.

As to `C=CC(O)CC` (stereo not drawn) [1-penten-3-ol], the IC50 in experiment [1] (class symbol, protein 1.5 μM) was more than 50 µM. The Kd in experiment [1] (setting [3]) is more than 11.2 µM.

The compound `CCCCCCO` [n-hexanol] yielded an IC50 in experiment [1] (class symbol, protein 1.5 μM) of more than 50 µM. For the same compound, in experiment [1] (setting [3]), the Kd was more than 11.2 µM.

For the compound `CC1=CC[C@@H](C(C)(C)O)CC1` [α-terpineol], the IC50 in experiment [1] (class symbol, protein 1.5 μM) is more than 50 µM. In experiment [1] (setting [3]), the Kd is more than 11.2 µM.

`CCCCCCC/C=C/C=O` [(E)-2-decenal]: the Kd in experiment [1] (setting [4]) was 20.7 µM. The IC50 in experiment [1] (setting [5]) came to 92.4 µM. Moreover, the “EAG response, male versus female antennae” value in experiment [2] is given as “stronger in male antennae than in female antennae”.

`CCOP(=O)(OCC)OCC` [Triethyl phosphate] came in with an IC50 in experiment [1] (class symbol, protein 1.5 μM) of more than 50 µM. Also, the Kd in experiment [1] (setting [3]) was more than 11.2 µM.

Consider `CC(=O)c1ccccc1` [Acetophenone], for which, in experiment [1] (setting [4]), the Kd is 13 µM. In experiment [1] (setting [5]), the IC50 is 57.9 µM. The “EAG response, male versus female antennae” value in experiment [2] is reported as “stronger in male antennae than in female antennae”.

As to `c1ccc(Nc2cccc3ccccc23)cc1` [1-NPN, N-phenyl-1-naphthylamine, reference compound], the Kd in experiment [1] (direct titration, Scatchard equation, read-out: dissociation constant of 1-NPN to EoblGOBP2) was approximately 2.31 µM.

As to `CC(=O)/C=C/C1=C(C)CCCC1(C)C` [β-ionone], the Kd in experiment [1] (setting [4]) is 12.6 µM. In experiment [1] (setting [5]), this compound showed an IC50 of 56.1 µM. Besides, the “EAG response in male and female antennae (in words)” value in experiment [2] is “weak responses”.

The compound `CC(C)=CCC/C(C)=C\CO` [Nerol] registered a 50% inhibitory concentration (IC50) in experiment [1] (class symbol, protein 1.5 μM) of more than 50 µM. Also, in experiment [1] (setting [3]), the Kd is more than 11.2 µM.

Take `COC(=O)c1ccccc1O` [Methyl salicylate]: the Kd in experiment [1] (setting [4]) is 43.5 µM. In experiment [1] (setting [5]), this compound had an IC50 of 194 µM. Also, in experiment [2], the “EAG response, male versus female antennae” value was “stronger in male antennae than in female antennae”.

As for `CCC/C=C/C=O` [(E)-2-hexenal], the Kd in experiment [1] (setting [4]) is 32.2 µM. Besides, the IC50 in experiment [1] (setting [5]) stood at 143 µM. Moreover, the “EAG response, male versus female antennae” value in experiment [2] is listed as “stronger in male antennae than in female antennae”.

For `CCCCOC(=O)c1ccccc1C(=O)OCCCC` [Dibutyl phthalate], in experiment [1] (setting [4]), the Kd is 4.35 µM. In experiment [1] (setting [5]), the IC50 is 19.4 µM. In experiment [2], the “EAG response in male and female antennae (in words)” value is listed as “weak responses”.

As for `C1COCO1` [1,3-dioxolane], the IC50 in experiment [1] (class symbol, protein 1.5 μM) was more than 50 µM. Moreover, in experiment [1] (setting [3]), the Kd was more than 11.2 µM. Moreover, the “binding to EoblGOBP2 (in words)” value in experiment [1] is “could not bind”.

In experiment [1] (class symbol, protein 1.5 μM), `CCCCCO` [n-pentanol] yielded an IC50 of more than 50 µM. The Kd in experiment [1] (setting [3]) was more than 11.2 µM.
